# Where two headings read alike, the source gives them in different places.
# What was measured:
# THP-1 cells = assay: Cell growth inhibition assay (CellTiter-Glo), THP-1; type: cell-based; conditions: Homo sapiens
# Method: (§1) Cell Growth Inhibition Assay
# (§2) The human leukemia cell lines MV-4-11, THP-1 and K-562 were employed to characterize the effect of BET inhibitors on cellular proliferation and viability. Cells were obtained from the American Type Culture Collection (ATCC) and cultured at 37° C. in a humidified 5% CO2 incubator in the following media: MV-4-11: DMEM high glucose (Animed #1-26F01-I), 10% FCS (Animed #2-01F26-I), 4 mM L-Glutamine (Animed #5-10K50), 1 mM Sodium Pyruvate (Animed # G03625P), 1× Penicillin-Streptomycin (Animed # F12478P); K-562: Iscove's MEM (Animed #1-28F16-I), 10% FCS (Animed #2-01F26-I), 4 mM L-Glutamine (Animed #5-10K50), 1× Penicillin-Streptomycin (Animed # F12478P); THP-1: RPMI-1640 (Animed #1-41F01-I), 10% FCS (Animed #2-01F26-I), 2 mM L-Glutamine (Animed #5-10K50), 10 mM HEPES (Animed #5-31F100), 1 mM Sodium Pyruvate (Animed # G03625P), 1× Penicillin-Streptomycin (Animed # F12478P). The AML lines MV-4-11 and THP-1 are very sensitive to BET inhibitors and show massive cell death upon BET inhibition (Zuber et al., Nature, 478 (2011), 524-8). Compound-mediated suppression of cell proliferation/viability was assessed by quantification of cellular ATP levels using the CellTiter-Glo (CTG) reagent (Promega). Briefly, cells were seeded in 20 μl fresh medium into 384-well plates, followed by addition of 5 μL medium containing compound dilutions at 5-fold their final intended concentration. Dose-response effects were assessed by 3-fold serial dilutions of the test compound, starting at 10 μM. Following incubation of the cells for 4 days at 37° C. and 5% CO2, the effect of inhibitors on cell viability was quantified following addition of 20 μl CTG and luminescence quantification (integration time: 100 ms) as per vendor manual, using a correspondingly equipped Tecan M200 multi-mode platereader (TECAN, Switzerland). For data analysis, the assay background value determined in wells containing medium, but no cells, was subtracted from all data points. To enable differentiation of cytotoxic from cytostatic compounds, the number of viable cells is assessed relative to that observed at the time of compound addition using a separate cell plate (day 0). The effect of a particular test compound concentration on cell proliferation/viability is expressed as percentage of the background- and day 0-corrected luminescence reading obtained for cells treated with vehicle only (DMSO, 0.1% final concentration), which is set as 100%, whereas that luminescence reading for wells containing medium is set as −100%. Compound concentrations leading to half-maximal (1050) and total growth inhibition (TGI) were determined using standard four parameter curve fitting.
# MV-4-11 cells = assay: Cell growth inhibition assay (CellTiter-Glo), MV-4-11; type: cell-based; conditions: Homo sapiens, MV4-11
# Method: as §1, §2
# K-562 cells = assay: Cell growth inhibition assay (CellTiter-Glo), K-562; type: cell-based, human
# Method: as §1, §2
SMILES,GI50 (THP-1 cells),GI50 (MV-4-11 cells),"GI50 (K-562 cells; Homo sapiens, K562)",IC (TGI) (THP-1 cells),IC (TGI) (MV-4-11 cells),"IC (TGI) (K-562 cells; Homo sapiens, K562)",IC (TGI) (K-562 cells)
"COc1ncc(-n2nc(C)c3c2C(=O)N(c2cc(C)c(=O)n(C)c2)C3c2ccc(Cl)cc2)c(OC)n1 (racemic) [Example 52, 4-(4-chlorophenyl)-1-(2,4-dimethoxypyrimidin-5-yl)-5-(1,5-dimethyl-6-oxo-1,6-dihydropyridin-3-yl)-3-methyl-4,5-dihydropyrrolo[3,4-c]pyrazol-6(1H)-one]",198 nM,97.4 nM,424 nM,345 nM,156 nM,> 10000 nM,
"Cc1nn(-c2ccnn2C)c2c1C(c1ccc(Cl)cc1)N(c1cc(C)c(=O)n(C)c1)C2=O (racemic) [Example 74, 4-(4-chlorophenyl)-5-(1,5-dimethyl-6-oxo-1,6-dihydropyridin-3-yl)-3-methyl-1-(1-methyl-1H-pyrazol-5-yl)-4,5-dihydropyrrolo-[3,4-c]pyrazol-6(1H)-one]",142 nM,95.8 nM,459 nM,327 nM,103 nM,> 10000 nM,
"Cc1c2c(nn1C1CC1)C(=O)N(c1cc(Cl)c(=O)n(C)c1)[C@H]2c1ccc(Cl)cc1 [Example 18, (S)-5-(5-chloro-1-methyl-6-oxo-1,6-dihydropyridin-3-yl)-4-(4-chlorophenyl)-2-cyclopropyl-3-methyl-4,5-dihydropyrrolo[3,4-c]pyrazol-6(2H)-one]",> 10000 nM,3330 nM,> 10000 nM,,,,
"Cc1cc(N2C(=O)c3n[nH]cc3C2c2ccc(Cl)cc2)cn(C)c1=O (centres unmarked) [Example 26, 4-(4-chlorophenyl)-5-(1,5-dimethyl-6-oxo-1,6-dihydropyridin-3-yl)-4,5-dihydropyrrolo[3,4-c]pyrazol-6(2H)-one]",297 nM,204 nM,1500 nM,,,,
"Cc1cc(N2C(=O)c3c(cnn3C3CC3)C2c2ccc(Cl)cc2)cn(C)c1=O (centres unmarked) [Example 34, 4-(4-chlorophenyl)-1-cyclopropyl-5-(1,5-dimethyl-6-oxo-1,6-dihydropyridin-3-yl)-4,5-dihydropyrrolo[3,4-c]pyrazol-6(1H)-one]",162 nM,82.8 nM,601 nM,,,,
"Cn1cc(N2C(=O)c3c(cnn3C3CC3)C2c2ccc(Cl)cc2)cc(Cl)c1=O (centres unmarked) [Example 35, 5-(5-chloro-1-methyl-6-oxo-1,6-dihydropyridin-3-yl)-4-(4-chlorophenyl)-1-cyclopropyl-4,5-dihydropyrrolo[3,4-c]pyrazol-6(1H)-one]",239 nM,105 nM,905 nM,,,,
"Cn1cc(N2C(=O)c3c(c(C(F)(F)F)nn3C3CC3)C2c2ccc(Cl)cc2)cc(Cl)c1=O (centres unmarked) [Example 44, 5-(5-chloro-1-methyl-6-oxo-1,6-dihydropyridin-3-yl)-4-(4-chlorophenyl)-1-cyclopropyl-3-(trifluoromethyl)-4,5-dihydropyrrolo[3,4-c]pyrazol-6(1H)-one]",308 nM,217 nM,658 nM,,,,
"Cc1cc(N2C(=O)c3c(c(C(F)(F)F)nn3C3CC3)C2c2ccc(Cl)cc2)cn(C)c1=O (centres unmarked) [Example 45, 4-(4-chlorophenyl)-1-cyclopropyl-5-(1,5-dimethyl-6-oxo-1,6-dihydropyridin-3-yl)-3-(trifluoromethyl)-4,5-dihydropyrrolo[3,4-c]pyrazol-6(1H)-one]",357 nM,251 nM,994 nM,,,,
"COc1ncc(-n2nc3c(c2C(C)C)C(c2ccc(Cl)cc2)N(c2cc(C)c4onc(C)c4c2)C3=O)c(OC)n1 (centres unmarked) [Example 46, 4-(4-chlorophenyl)-2-(2,4-dimethoxypyrimidin-5-yl)-5-(3,7-dimethylbenzo[d]-isoxazol-5-yl)-3-isopropyl-4,5-dihydropyrrolo-[3,4-c]pyrazol-6(2H)-one]",177 nM,115 nM,370 nM,,,,>10000 nM
"COc1ncc(-n2nc3c(c2C(F)(F)F)C(c2ccc(Cl)cc2)N(c2cc(Cl)c(=O)n(C)c2)C3=O)c(OC)n1 (centres unmarked) [Example 47, 5-(5-chloro-1-methyl-6-oxo-1,6-dihydropyridin-3-yl)-4-(4-chlorophenyl)-2-(2,4-dimethoxypyrimidin-5-yl)-3-(trifluoromethyl)-4,5-dihydropyrrolo[3,4-c]pyrazol-6(2H)-one]",414 nM,113 nM,709 nM,,,,

# The next compounds have a lower GI50 (THP-1 cells) than those just listed; values first:
GI50 (THP-1 cells),GI50 (MV-4-11 cells),"GI50 (K-562 cells; Homo sapiens, K562)",SMILES,IC (TGI) (THP-1 cells),IC (TGI) (MV-4-11 cells),"IC (TGI) (K-562 cells; Homo sapiens, K562)",IC (TGI) (K-562 cells)
22.6 nM,14.5 nM,98.9 nM,"Cc1cc(N2C(=O)c3c(c(C4CC4)nn3C)C2c2ccc(Cl)cc2)cn2c(C)nnc12 (racemic) [Example 129, 4-(4-chlorophenyl)-3-cyclopropyl-5-(3,8-dimethyl-[1,2,4]triazolo[4,3-a]pyridin-6-yl)-1-methyl-4,5-dihydropyrrolo-[3,4-c]pyrazol-6(1H)-one]",,,,
107 nM,52.3 nM,427 nM,"COCc1nn(C2CC2)c2c1C(c1ccc(Cl)cc1)N(c1cc(C)c(=O)n(C)c1)C2=O (racemic) [Example 132, 4-(4-chlorophenyl)-1-cyclopropyl-5-(1,5-dimethyl-6-oxo-1,6-dihydropyridin-3-yl)-3-(methoxymethyl)-4,5-dihydropyrrolo[3,4-c]pyrazol-6(1H)-one]",233 nM,99.5 nM,> 10000 nM,
103 nM,71.1 nM,632 nM,"Cc1c2c(nn1C)C(=O)N(c1cc(Cl)c(=O)n(C)c1)[C@@H]2c1ccc(Cl)cc1 [Example 7, (R)-5-(5-chloro-1-methyl-6-oxo-1,6-dihydropyridin-3-yl)-4-(4-chlorophenyl)-2,3-dimethyl-4,5-dihydropyrrolo-[3,4-c]pyrazol-6(2H)-one]",,,,
101 nM,75.8 nM,624 nM,"Cc1cc(N2C(=O)c3nn(C)cc3[C@H]2c2ccc(Cl)cc2)cn(C)c1=O [Example 16, (R)-4-(4-chlorophenyl)-5-(1,5-dimethyl-6-oxo-1,6-dihydropyridin-3-yl)-2-methyl-4,5-dihydropyrrolo-[3,4-c]pyrazol-6(2H)-one]",,,,
74.6 nM,25.8 nM,242 nM,"Cc1c2c(nn1C1CC1)C(=O)N(c1cc(Cl)c(=O)n(C)c1)[C@@H]2c1ccc(Cl)cc1 [Example 19, (R)-5-(5-chloro-1-methyl-6-oxo-1,6-dihydropyridin-3-yl)-4-(4-chlorophenyl)-2-cyclopropyl-3-methyl-4,5-dihydropyrrolo-[3,4-c]pyrazol-6(2H)-one]",,,,>10000 nM
36.6 nM,22.3 nM,266 nM,"Cc1cc(N2C(=O)c3nn(C4CC4)c(C)c3[C@H]2c2ccc(Cl)cc2)cn(C)c1=O [Example 21, (R)-4-(4-chlorophenyl)-2-cyclopropyl-5-(1,5-dimethyl-6-oxo-1,6-dihydropyridin-3-yl)-3-methyl-4,5-dihydropyrrolo[3,4-c]pyrazol-6(2H)-one]",,,,
120 nM,55.9 nM,463 nM,"Cc1[nH]nc2c1C(c1ccc(Cl)cc1)N(c1cc(C)c(=O)n(C)c1)C2=O (centres unmarked) [Example 27, 4-(4-chlorophenyl)-5-(1,5-dimethyl-6-oxo-1,6-dihydropyridin-3-yl)-3-methyl-4,5-dihydropyrrolo[3,4-c]pyrazol-6(2H)-one]",,,,
103 nM,53.4 nM,430 nM,"Cc1cc(N2C(=O)c3c(cnn3C(C)C)C2c2ccc(Cl)cc2)cn(C)c1=O (centres unmarked) [Example 36, 4-(4-chlorophenyl)-5-(1,5-dimethyl-6-oxo-1,6-dihydropyridin-3-yl)-1-isopropyl-4,5-dihydropyrrolo-[3,4-c]pyrazol-6(1H)-one]",,,,
29 nM,24.1 nM,120 nM,"Cc1nn(C2CC2)c2c1[C@@H](c1ccc(Cl)cc1)N(c1cc(C)c(=O)n(C)c1)C2=O [Example 49, (R)-4-(4-chlorophenyl)-1-cyclopropyl-5-(1,5-dimethyl-6-oxo-1,6-dihydropyridin-3-yl)-3-methyl-4,5-dihydropyrrolo-[3,4-c]pyrazol-6(1H)-one]",,,,
72.5 nM,51.9 nM,318 nM,"Cc1nn(C2CC2)c2c1[C@@H](c1ccc(Cl)cc1)N(c1cc(Cl)c(=O)n(C)c1)C2=O [Example 51, (R)-5-(5-chloro-1-methyl-6-oxo-1,6-dihydropyridin-3-yl)-4-(4-chlorophenyl)-1-cyclopropyl-3-methyl-4,5-dihydropyrrolo-[3,4-c]pyrazol-6(1H)-one]",,,,

# — patent US20160095843A1, “PYRAZOLOPYRROLIDINE DERIVATIVES AND THEIR USE IN THE TREATMENT OF DISEASE” (NOVARTIS AG, priority 2013, published 2016)
